Measured values from paper PMC6279743, “A small molecule ApoE4-targeted therapeutic candidate that normalizes sirtuin 1 levels and improves cognition in an Alzheimer’s disease mouse model” (Scientific Reports, 2018).

What was measured:
[1] = tested on: SirT1 levels in A172-E4 cells; assay: Confirmation assay in A172-E4 cells, SirT1 AlphaLISA; type: cell-based, human; conditions: 50 μM A03 vs DMSO
Method: (§1) Jesus Campagna, Patricia Spilman, Barbara Jagodzinska, Dongsheng Bai, Asa Hatami, Chunni Zhu, Tina Bilousova, Michael Jun, Chris Jean Elias, Johnny Pham, Gregory Cole, Mary Jo LaDu, Michael E. Jung, Dale E. Bredesen, and […]
(§2) Confirmation assay in A172-E4 cells. Befo re transfection, A172 human glioblastoma cells were cultured in Dulbecco’s Modified Eagle Medium (DMEM) supplemented with 10% fetal bovine serum and 1% penicillin/streptomycin in a 37 °C incubator in an atmosphere of 5% CO2 in air. The day of transfection, the media was replaced with Opti-MEM reduced serum medium. Transient transfection with human ApoE4 and ApoE3 constructs in pcDNA3 mammalian expression vectors or empty vector (control) was performed in 96-well plates using a 1:1 mixture of two transfection reagents - Lipofectamine 2000 and siPORT amine - in Opti-MEM as previously described13. After 4 hr incubation with transfection reagents, medium was exchanged for fresh […]
(§3) Cells were incubated with the compound for 60 hrs, then cell culture medium (for sAPPα) and cells (lysates for SirT1) were harvested and levels of sAPPα and SirT1

[2] = tested on: sAPPα levels in A172-E4 cells; assay: Confirmation assay in A172-E4 cells, sAPPα AlphaLISA; type: cell-based, human; conditions: 50 μM A03 vs DMSO, cell culture medium
Method: as §1, §2, §3

[3] = Parallel Artificial Membrane Permeability Assay (PAMPA; IAM column); type: in vitro ADME
Method: We used L(+)tartaric acid to isolate the L-enantiomer salt and D(-) tartaric acid to isolate the D-enantiomer salt, followed by neutralization of the salt with NaOH and re-crystallization to obtain the enantiomers. Enantiomer abundance (Supplementary Fig. S4) was determined by HPLC using a Chiralpak IB column. Isopropanol (0.2% diethylamine)/hexanes was used for gradient elution with 5–50% isopropanol (0.2% diethylamine) for 11 min, a Chiralpak IB column, and with sample (1 μL, 1.25 mg/mL) injection, 220 nm wavelength detection, and a flow rate of 1 mL/min. […] The L-alanine analog co-elutes with enantiomer-1 while the D-alanine analog co-elutes with enantiomer-2. Analysis of the enantiomers and A03 in the Parallel Artificial Membrane Permeability Assay (PAMPA) was performed and is described in Supplementary Methods. […]
PAMPA. An IAM.PC.DD2 Regis Technologies analytical (10 cm x 4.6 mm) column wherein phospholipid is bonded on 10 μm, 300 Å, spherical aminopropyl silica and end capped with C10 and C3 amides was used to determine membrane permeability of A03, E1 and E2. An isocratic method was used with a mobile phase comprising acetonitrile:PBS (pH 5.6) equal to 35:65, an injection volume of 5 µL, and a flow rate of 1 mL/min. The parameters determined are Tr = retention time of compound; KIAM= (Tr-T0)/T0; T0= is the delay time of the column, determined by use of 100 µg/mL citric acid) and was T0= 1.24 min; and (KIAM/MW4)*10-(10). The molecular weight of all three compounds was 255.74 g/mol. […]
Supplementary Fig. S1. […] (a) Transient transfection with either
ApoE3 or E4 decreased SirT1 levels as compared to empty vector (Pc/DMSO), but the decrease was greater with […]

E4FAD mice [4] = assay: Y maze Forced Alternation in 56-day study; type: in vivo; conditions: minute 1 or by 5 minutes
Method: Study mice also underwent Forced Alternation (FA) tests in a Y maze apparatus[74],[75]. Details of the method can be found in Supplementary Methods. Briefly, individual test mice are prevented from entering one of three arms of the maze in the first 5 minute trial and after 30 minutes is returned to maze wherein the blocked arm is available. Time in Novel Arm C [%] was defined as the time spent in the novel arm divided by the time spent in all arms during the first minute.
A small molecule ApoE4-targeted therapeutic candidate that normalizes sirtuin 1 levels and Improves cognition in an Alzheimer’s disease mouse model
as §1
Confirmation assay in A172-E4 cells. […]
Cells were incubated with the compound for 60 hrs, then cell culture medium (for sAPPα) and cells (lysates for SirT1) were harvested and levels of sAPPα and SirT1 determined by AlphaLISA. […]
PAMPA. […] The parameters determined are Tr = retention time of compound; KIAM= (Tr-T0)/T0; T0= is the delay time of the column, determined by use of 100 µg/mL citric acid) and was T0= 1.24 min; and (KIAM/MW4)*10-(10). […]
Forced Alternation. […] An arm entry was recorded when all 4 paws of the mouse entered the arm. […]

E4FAD mice [5] = assay: Toxicity observation and body weights in 56-day study; type: in vivo
Source text: E4FAD mice were 10–12 mo and NTg mice 7–9 mo at the start of the study.

SirT1 mRNA = tested on: SirT1 mRNA; parameters: method as in PMID 26791201; conditions: original studies, A172-E4 cells; cited from earlier work
patients = conditions: cited from earlier work

CC(N)C(=O)OC(C)(C)Cc1ccc(Cl)cc1 (stereo not drawn) [A03, alaproclate]
SirT1 levels in ApoE4-transfected A172 cells [1]: significantly increased SirT1 levels
sAPPα levels in A172-E4 cells [2]: significant increase
retention time (Tr) in PAMPA ([3]; IAM.PC.DD2 column, acetonitrile:PBS (pH 5.6) 35:65): 3.31
KIAM ([3]; KIAM = (Tr-T0)/T0, T0 = 1.24 min): 1.67
(KIAM/MW^4) * 10^−(10) ([3]; MW 255.74 g/mol): 3.90
Y maze FA, entries into the Novel Arm C (E4FAD mice [4]): no significant differences amongst groups
Body weights (E4FAD mice [5]; 56-day oral study): stayed the same
Signs of toxicity by cage-side observation (E4FAD mice [5]; E4FAD mice, oral 56-day treatment): no signs of toxicity
SirT1 mRNA (SirT1 mRNA): increase in SirT1 mRNA
Liver function in Phase 1 trial for depression (patients; human): some liver function changes were seen
Toxicity in second clinical study (patients; human): no toxicity up to 200 mg BID
Global scores in moderate to advanced AD patients (patients; small clinical studies): some improvements in global scores
